Like-named read-outs stand apart in the source and are kept apart here.
Target: T1, SIRT5 (Homo sapiens, UniProt Q9NXA8)
T1 sequence (Q9NXA8 37-310): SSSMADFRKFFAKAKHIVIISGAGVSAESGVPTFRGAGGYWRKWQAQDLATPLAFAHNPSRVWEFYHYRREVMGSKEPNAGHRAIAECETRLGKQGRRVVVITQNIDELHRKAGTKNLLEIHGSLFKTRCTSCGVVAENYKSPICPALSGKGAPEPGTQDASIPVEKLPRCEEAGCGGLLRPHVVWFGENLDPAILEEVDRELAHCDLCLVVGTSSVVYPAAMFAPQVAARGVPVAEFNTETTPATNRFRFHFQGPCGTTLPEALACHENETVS
Assay: SIRT5 deacetylation activation assay (radiolabelled NAD+, DEAE-Sephadex column, turnover with vs without activator)
Type: biochemical
Description: The reactions were processed using DEAE columns. […]
Reactions containing NAD^+ including [2,8A^−3H]-NAD^+, peptide substrate, with or without activator in 100 mM phosphate buffer (pH 7.5) were initiated by addition of SIRT5 enzyme to a concentration of 10 μM. Reactions were incubated at 37° C. for 1 h and quenched by addition of trifluoroacetic acid to pH 2. After centrifugation to remove the precipitates, reactions were loaded onto columns containing pre-equilibrated DEAE-Sephadex (equilibrated with 5 mM ammonium acetate pH 7). The reaction mixture was then eluted with eight fractions of 20 mM ammonium acetate pH 7 and three fractions of 300 mM ammonium acetate pH 7. The radioactivity contained in the eluents was then quantified by scintillation counter. Radiolabelled NAD^+ eluted in the 20 mM washes, while products ADPR and AADPR eluted in the 300 mM fractions. Radioactivity in the remaining NAD^+ fractions and the radioactivity in the product fractions were then converted to a turnover rate (1/s) by adjustment for specific radioactivity and enzyme concentration. The turnovers from the reaction with or without the activators were compared to show the percentage of activation.
Test compounds were assayed against SIRT5 as described in Example 1.

[1] = FIG. 4, 500 μM JB12, 500 μM NAD+, 1 mM of activator compound
[2] = FIG. 4, 500 μM JB12, 500 μM NAD+, 1 mM of activator compound, read-out: Km of activator for activation of SIRT5-catalyzed deacetylation
[3] = FIG. 3, varying concentrations of activator, 500 μM NAD+, 500 μM JB12, DEAE columns
[4] = FIG. 3, varying concentrations of activator, 500 μM NAD+, 500 μM JB12, DEAE columns, read-out: Km of activator for activation of SIRT5-catalyzed deacetylation (Michaelis Menten curve fitting)

In the case of `COB(OC)c1ccc[n+]([C@H]2CC(O)[C@@H](COP(=O)([O-])O)O2)c1` (stereo partly drawn), the SIRT5 % activated (at 160 μM test compound) is reported as 50% activated at 160 μM.
For `NC(=O)c1ccc[n+]([C@@H]2O[C@H](CO)C(O)C2(F)F)c1` (stereo partly drawn), the SIRT5 % activated (at 2.4 mM test compound) was 90% activated at 2.4 mM.
With `O=C(O)c1ccc[n+]([C@@H]2O[C@H](CO)C(O)C2O)c1` (stereo partly drawn) the SIRT5 % activated (at 800 μM test compound) was 60% activated at 800 μM.
Work on `NC(=O)c1ccc[n+]([C@@H]2O[C@H](CO)C(O)C2O)c1` (stereo partly drawn) yielded an SIRT5 % activated (at 800 μM test compound) of 100% activated at 800 μM.
Compound `CCOC(=O)c1ccc[n+]([C@@H]2O[C@H](CO)C(O)C2O)c1` (stereo partly drawn) has an SIRT5 % activated (at 600 μM test compound) of 40% activated at 600 μM.
Work on `COC(=O)c1ccc[n+]([C@@H]2O[C@H](CO)C(O)C2O)c1` (stereo partly drawn) yielded an SIRT5 % activated (at 600 μM test compound) of 80% activated at 600 μM.
With `NC(=O)c1ccc[n+]([C@@H]2O[C@H](CO)C(O)C2Cl)c1` (stereo partly drawn) the SIRT5 % activated (at 1 mM test compound) was 75% activated at 1 mM.
`NC(=O)c1ccc[n+]([C@@H]2O[C@H](CO)[C@@H](O)[C@H]2O)c1` [NR, nicotinamide riboside] was tested, and the Emax (FIG. 3, varying concentrations of activator, 500 μM NAD+, 500 μM JB12, DEAE columns, read-out: max activation of SIRT5 deacetylation) was 200%.
`O=C([O-])c1ccc[n+]([C@@H]2O[C@H](CO)[C@@H](O)[C@H]2O)c1` [NaR, nicotinic acid riboside] was tested, and the “max activation of SIRT5 deacetylation” value [1] was 160% and the Km [2] was 821 µM.
`CCOC(=O)c1ccc[n+]([C@@H]2O[C@H](CO)[C@@H](O)[C@H]2O)c1` [O-ethyl NR, ethyl nicotinate riboside] was tested, and the “max activation of SIRT5 deacetylation” value [1] was 150% and the Km [2] was 323 µM.
With `COC(=O)c1ccc[n+]([C@@H]2O[C@H](CO)[C@@H](O)[C@H]2O)c1` [O-methyl NR, methyl nicotinate riboside] the “max activation of SIRT5 deacetylation” value [1] was 190% and the Km [2] was 93 µM.
`NC(=O)c1ccc[n+](C2O[C@H](CO)[C@@H](O)C2(F)F)c1` (stereo partly drawn) [gem-diF-NR, 1-(2′-deoxy-2′,2′-difluoro-ribofuranosyl)-nicotinamide] was tested, and the “max activation of SIRT5 deacetylation” value [3] was 120% and the Km [4] was 50 µM.
For `NC(=O)c1ccc[n+](C2O[C@H](CO)[C@@H](O)[C@H]2Cl)c1` (stereo partly drawn) [ribo-Cl-NR, 1-(2′-deoxy-2′-chloro-ribofuranosyl)-nicotinamide], the “max activation of SIRT5 deacetylation” value [3] was 125% and the Km [4] was 95 µM.
